Results: patent US20020147318A1, “Preparation method of water soluble carboxylmethyl chitosan having anti-lipid peroxidation ability” (priority 2001, published 2002)
In brackets after ≈: the same amount, converted by molar mass.

Test system: lipid peroxidation in rat liver microsomes
Experiment: Anti-lipid peroxidation in rat liver microsomes (NADPH-induced, MDA-TBA absorbance at 535 nm)
Format: biochemical
Method: In the present, the rat microsomes is used to provide lipid source. The product of lipid peroxidation induced by NADPH with heat treatment (deconstructing microsome enzyme) is referred as MDA (malondialdehyde). The MDA is added with TBA (thiobarbituric acid) to form MDA-TBA compound with pink fluorescence. The MDA-TBA compound has absorption spectrum at 535 nm (or 532 nm) wavelength. The content of MDA can be manifested by the absorption degree of light at those wavelengths. Therefore, the degree of lipid peroxidation can also be known. If the content of MDA is decreased after addition of water soluble CM chitosan, the reduction of MDA can be attributed to the water soluble CM chitosan. It means that the water soluble CM chitosan has the ability of anti-lipid peroxidation. In the present invention, the anti-lipid peroxidation ability of the water soluble CM chitosan is compared with that of the Trolex (water soluble vitamin E).

SMILES: Cc1c(C)c2c(c(C)c1O)CCC(C)(C(=O)O)O2 (stereo not drawn) [Trolex]
- effect on lipid peroxidation in rat liver microsomes (addition of the substance to rat liver microsomes): can suppress the lipid peroxidation
- MDA, the product of lipid peroxidation (as the added amount of the substance is increased): monotonically decreased
- IC50 (the concentration required to suppress 50% lipid peroxidation) (rat liver microsomes, average over at least three data): 4.96 µg/mL (≈ 19.8 µM)
